Experimental data from ChEMBL document CHEMBL5154747, “Discovery of new carbonic anhydrase IX inhibitors as anticancer agents by toning the hydrophobic and hydrophilic rims of the active site to encounter the dual-tail approach” (Eur J Med Chem, 2022).

Key:
CCRF-CEM = test: Anticancer activity against human CCRF-CEM cells assessed as cell growth inhibition incubated for 48 hrs by SRB assay; format: functional
K562 = test: Anticancer activity against human K562 cells assessed as cell growth inhibition incubated for 48 hrs by SRB assay; format: functional
MOLT-4 = test: Anticancer activity against human MOLT-4 cells assessed as cell growth inhibition incubated for 48 hrs by SRB assay; format: functional
SR = test: Anticancer activity against human SR cells assessed as cell growth inhibition incubated for 48 hrs by SRB assay; format: functional
A549 = test: Anticancer activity against human A549 cells assessed as cell growth inhibition incubated for 48 hrs by SRB assay; format: functional
EKVX = test: Anticancer activity against human EKVX cells assessed as cell growth inhibition incubated for 48 hrs by SRB assay; format: functional
HOP-62 = test: Anticancer activity against human HOP-62 cells assessed as cell growth inhibition incubated for 48 hrs by SRB assay; format: functional
HOP-92 = test: Anticancer activity against human HOP-92 cells assessed as cell growth inhibition incubated for 48 hrs by SRB assay; format: functional
NCI-H226 = test: Anticancer activity against human NCI-H226 cells assessed as cell growth inhibition incubated for 48 hrs by SRB assay; format: functional
NCI-H23 = test: Anticancer activity against human NCI-H23 cells assessed as cell growth inhibition incubated for 48 hrs by SRB assay; format: functional
NCI-H322M = test: Anticancer activity against human NCI-H322M cells assessed as cell growth inhibition incubated for 48 hrs by SRB assay; format: functional
NCI-H460 = test: Anticancer activity against human NCI-H460 cells assessed as cell growth inhibition incubated for 48 hrs by SRB assay; format: functional
NCI-H522 = test: Anticancer activity against human NCI-H522 cells assessed as cell growth inhibition incubated for 48 hrs by SRB assay; format: functional
HCT-116 = test: Anticancer activity against human HCT-116 cells assessed as cell growth inhibition incubated for 48 hrs by SRB assay; format: functional
HCT-15 = test: Anticancer activity against human HCT-15 cells assessed as cell growth inhibition incubated for 48 hrs by SRB assay; format: functional
HT-29 = test: Anticancer activity against human HT-29 cells assessed as cell growth inhibition incubated for 48 hrs by SRB assay; format: functional
KM12 = test: Anticancer activity against human KM12 cells assessed as cell growth inhibition incubated for 48 hrs by SRB assay; format: functional
SW-620 = test: Anticancer activity against human SW-620 cells assessed as cell growth inhibition incubated for 48 hrs by SRB assay; format: functional
SF-268 = test: Anticancer activity against human SF-268 cells assessed as cell growth inhibition incubated for 48 hrs by SRB assay; format: functional
SF-539 = test: Anticancer activity against human SF-539 cells assessed as cell growth inhibition incubated for 48 hrs by SRB assay; format: functional
SNB-19 = test: Anticancer activity against human SNB-19 cells assessed as cell growth inhibition incubated for 48 hrs by SRB assay; format: functional
SNB-75 = test: Anticancer activity against human SNB-75 cells assessed as cell growth inhibition incubated for 48 hrs by SRB assay; format: functional
U-251 = test: Anticancer activity against human U-251 cells assessed as cell growth inhibition incubated for 48 hrs by SRB assay; format: functional
Malme-3M = test: Anticancer activity against human Malme-3M cells assessed as cell growth inhibition incubated for 48 hrs by SRB assay; format: functional
SK-MEL-2 = test: Anticancer activity against human SK-MEL-2 cells assessed as cell growth inhibition incubated for 48 hrs by SRB assay; format: functional
SK-MEL-5 = test: Anticancer activity against human SK-MEL-5 cells assessed as cell growth inhibition incubated for 48 hrs by SRB assay; format: functional
UACC-257 = test: Anticancer activity against human UACC-257 cells assessed as cell growth inhibition incubated for 48 hrs by SRB assay; format: functional
UACC-62 = test: Anticancer activity against human UACC-62 cells assessed as cell growth inhibition incubated for 48 hrs by SRB assay; format: functional
OVCAR-4 = test: Anticancer activity against human OVCAR-4 cells assessed as cell growth inhibition incubated for 48 hrs by SRB assay; format: functional
OVCAR-5 = test: Anticancer activity against human OVCAR-5 cells assessed as cell growth inhibition incubated for 48 hrs by SRB assay; format: functional
OVCAR-8 = test: Anticancer activity against human OVCAR-8 cells assessed as cell growth inhibition incubated for 48 hrs by SRB assay; format: functional
NCI/ADR-RES = test: Anticancer activity against human NCI/ADR-RES cells assessed as cell growth inhibition incubated for 48 hrs by SRB assay; format: functional
A498 = test: Anticancer activity against human A498 cells assessed as cell growth inhibition incubated for 48 hrs by SRB assay; format: functional
RXF 393 [1] = test: Anticancer activity against human RXF 393 cells assessed as cell growth inhibition incubated for 48 hrs by SRB assay; format: functional
SN12C = test: Anticancer activity against human SN12C cells assessed as cell growth inhibition incubated for 48 hrs by SRB assay; format: functional
UO-31 = test: Anticancer activity against human UO-31 cells assessed as cell growth inhibition incubated for 48 hrs by SRB assay; format: functional
MCF7 = test: Anticancer activity against human MCF7 cells assessed as cell growth inhibition incubated for 48 hrs by SRB assay; format: functional
Hs-578T = test: Anticancer activity against human Hs-578T cells assessed as cell growth inhibition incubated for 48 hrs by SRB assay; format: functional
T47D = test: Anticancer activity against human T47D cells assessed as cell growth inhibition incubated for 48 hrs by SRB assay; format: functional
RXF 393 [2] = test: Cytotoxicity against human RXF 393 cells assessed as inhibition of cell viability incubated for 72 hrs under hypoxia condition by MTT assay; format: functional, cell-based; details: RXF 393, 72 h
[3] = read-out: LC50 (the source's name)

`Cc1nn(-c2ccccc2)cc1/C=N/Nc1nc(Nc2ccccc2)nc(Nc2ccc(S(N)(=O)=O)cc2)n1` showed a GI50 (CCRF-CEM) of 2.09 µM, a CC50 (CCRF-CEM; [3]) greater than 100 µM and a GI50 (K562) of 2.63 µM. For the same molecule, the CC50 (K562; [3]) was greater than 100 µM, the GI50 (MOLT-4) was 2.29 µM and the CC50 (MOLT-4; [3]) was greater than 100 µM. For the same molecule, the GI50 (SR) was 2.45 µM, the CC50 (SR; [3]) was greater than 100 µM and the GI50 (A549) was 1.85 µM. For the same molecule, the GI50 (EKVX) was 2 µM, the CC50 (EKVX; [3]) was 35.1 µM and the GI50 (HOP-62) was 2.83 µM. It also gave a CC50 (HOP-62; [3]) greater than 100 µM, a GI50 (HOP-92) of 2.44 µM and a CC50 (HOP-92; [3]) greater than 100 µM. For the same molecule, the GI50 (NCI-H226) was 1.85 µM, the CC50 (NCI-H226; [3]) was greater than 100 µM and the GI50 (NCI-H23) was 1.74 µM. For the same molecule, the CC50 (NCI-H23; [3]) was 7.5 µM, the GI50 (NCI-H322M) was 2.44 µM and the CC50 (NCI-H322M; [3]) was greater than 100 µM. The GI50 (NCI-H460) was 2.77 µM, the CC50 (NCI-H460; [3]) was greater than 100 µM and the GI50 (NCI-H522) was 2.66 µM. The CC50 (NCI-H522; [3]) was greater than 100 µM, the GI50 (HCT-116) was 2 µM and the LC50 (concentration killing 50% of cells) (HCT-116) was greater than 100 µM. It also gave a GI50 (HCT-15) of 2.67 µM, a CC50 (HCT-15; [3]) greater than 100 µM and a GI50 (HT-29) of 2.88 µM. For the same molecule, the CC50 (HT-29; [3]) was greater than 100 µM, the GI50 (KM12) was 2.84 µM and the CC50 (KM12; [3]) was greater than 100 µM. The GI50 (SW-620) was 3.38 µM, the CC50 (SW-620; [3]) was greater than 100 µM and the GI50 (SF-268) was 2.93 µM. The LC50 (concentration killing 50% of cells) (SF-268) was greater than 100 µM, the GI50 (SF-539) was 1.71 µM and the CC50 (SF-539; [3]) was 6.25 µM. It also gave a GI50 (SNB-19) of 3.44 µM, a CC50 (SNB-19; [3]) greater than 100 µM and a GI50 (SNB-75) of 2.69 µM. It also gave an LC50 (concentration killing 50% of cells) (SNB-75) greater than 100 µM, a GI50 (U-251) of 3.65 µM and a CC50 (U-251; [3]) greater than 100 µM. It also gave a GI50 (Malme-3M) of 1.6 µM, a CC50 (Malme-3M; [3]) of 6.13 µM and a GI50 (SK-MEL-2) of 1.69 µM. The GI50 (SK-MEL-5) was 1.48 µM, the LC50 (SK-MEL-5) was 5.3 µM and the GI50 (UACC-257) was 2.5 µM. It also gave an LC50 (UACC-257) greater than 100 µM, a GI50 (UACC-62) of 1.78 µM and an LC50 (UACC-62) of 7.19 µM. The GI50 (OVCAR-4) was 2.55 µM, the LC50 (concentration killing 50% of cells) (OVCAR-4) was greater than 100 µM and the GI50 (OVCAR-5) was 2.06 µM. For the same molecule, the CC50 (OVCAR-5; [3]) was greater than 100 µM, the GI50 (OVCAR-8) was 2.05 µM and the LC50 (OVCAR-8) was greater than 100 µM. The GI50 (NCI/ADR-RES) was greater than 100 µM, the CC50 (NCI/ADR-RES; [3]) was greater than 100 µM and the GI50 (A498) was 1.71 µM. It also gave a CC50 (A498; [3]) of 6.71 µM, a GI50 (RXF 393 [1]) of 1.77 µM and a CC50 (RXF 393 [1]; [3]) of 6.5 µM. For the same molecule, the GI50 (SN12C) was 2.94 µM, the LC50 (SN12C) was greater than 100 µM and the GI50 (UO-31) was 1.72 µM. It also gave a CC50 (UO-31; [3]) of 7.27 µM, a GI50 (MCF7) of 1.55 µM and an LC50 (MCF7) of 7.59 µM. It also gave a GI50 (Hs-578T) of 2.77 µM, an LC50 (concentration killing 50% of cells) (Hs-578T) greater than 100 µM and a GI50 (T47D) of 2.14 µM. It also gave an LC50 (T47D) greater than 100 µM.

`CN(C)c1ccc(/C=N/Nc2nc(Nc3ccccc3)nc(Nc3ccc(S(N)(=O)=O)cc3)n2)cc1` gave an IC50 (RXF 393 [2]) of 7.21 µM.
